Article PMC11979273, “A phase I study to evaluate the safety, tolerability, and pharmacokinetics of HEC113995PA·H2O, a novel dual-acting serotonergic antidepressant, in healthy subjects” (Frontiers in Pharmacology, 2025)
Read-outs that look alike come from different tables or passages of the source.

Experiments:
[1] = Food effect study, plasma pharmacokinetics; type: in vivo, human; conditions: for Cmax / MRT / half-life / Vd/F / Tmax: po, 20 mg; for Vd/F: read-out: Vz/F; for Tmax: N = 18, median (min, max)
From the text: A total of 18 healthy subjects of both genders, were assigned randomly to three sequences A, B, and C (n = 6). All subjects received HEC113995PA·H2O tablets, with a total of 3 times administered during the trial, once per cycle, and a washout period of ≥11 days. In sequence A, the order of administration was as follows: fasting, after a standard meal, and after a high-fat meal. In sequence B, the order of administration was after a standard meal, after a high-fat meal, and fasting. Sequence C subjects were administered in the following order: after a high-fat meal, fasting, and after a standard meal. During the fed periods, a single oral dose of HEC113995PA·H2O tablet 20 mg was administered within 30 min after consumption of a standard meal (total calories: approximately 600 kcal), or a high-fat, high-calorie meal (total calories: approximately 800 kcal–1,000 kcal, which derives about 150, 250, and 500–600 kcal from protein, carbohydrate, and fat, respectively). Serial blood samples were collected before and after each cycle for PK determination of plasma concentration and the evaluation of pharmacokinetic characteristics. Safety and tolerability were assessed on days 4 and 28.
In the first dose group of single ascending-dose study, PK blood samples were collected at 0.5 h before administration and 0.5, 1, 1.5, 2, 2.5, 3, 4, 5, 6, 8, 10, 12, 24, 36, 48, and 72 h after administration. In other SAD groups, MAD groups and food effect study, PK blood samples were collected at 0.5 h before administration, and 1, 2, 3, 4, 5, 6, 7, 8, 10, 12, 24, 48, 72, 96, 120 and 144 h after administration. Approximately 4 mL of venous blood was obtained from each collection and placed in a vacuum collection vessel containing K2EDTA anticoagulant. The blood was centrifuged and packed according to the instruction provided by the Biological Sample Detection and Analysis Unit. Briefly, all samples were centrifuged at 4°C, 1,500 g for 10 min within 0.5 h after blood collection. After centrifugation, the plasma was aliquoted into two cryogenic storage tubes. The first tube (Tube A) contained at least 0.8 mL of plasma for analytical testing, and the remaining plasma is allocated into the backup tube (Tube B). The plasma samples were stored at −80°C within 1 h after aliquoting for further analysis.
The concentration of HEC113995PA·H2O in human plasma samples (K2EDTA) was quantitatively analyzed using the LC-MS/MS method. Plasma samples (50 μL) were processed using protein precipitation with 5 μL deuterated internal standard (HEC124659) and 100 μL acetonitrile. The Shimadzu LCMS-8060 system coupled with a GL Sciences Inc. InertSustain AQ-C18 HP column (50 × 2.1 mm, 3 μm) achieved chromatographic separation through gradient elution using 0.04% TFA aqueous solution (pH 2.1) and acetonitrile at 0.4 mL/min. ESI-positive mode detection employed optimized parameters: 300°C interface temperature, 250°C DL temperature, 3 L/min nebulizer gas, and 400°C heating block temperature.
Using WinNonlin 7.0 for non-compartmental analysis (NCA), pharmacokinetic (PK) parameters were meticulously calculated based on the actual sampling times for plasma, urine, and fecal samples from each subject post-administration. These parameters encompassed a comprehensive range, including the area under the concentration–time curve (AUC), AUC from time zero (pre-dose) to the time of the last measurable concentration (AUC0-t), and AUC from time zero (pre-dose) to infinity (AUC0-∞). Additionally, maximum observed plasma concentration (Cmax), time to achieve maximum plasma concentration (Tmax), terminal elimination half-life (t1/2), elimination rate constant (Ke), apparent volume of distribution (Vd/F), clearance rate (CL/F), and mean residence time (MRT) were also determined. The AUC0-t and AUC0-∞ values were computed using the linear trapezoidal rule method. Tmax and Cmax were ascertained based on the actual observed data. […]

5-HT1A receptor = target: T1, 5-HT1A receptor (Homo sapiens, UniProt P08908); assay: 5-HT1A receptor agonism (EC50, EMAX); type: biochemical; conditions: in vitro; unpublished data
T1 sequence (P08908 1-422): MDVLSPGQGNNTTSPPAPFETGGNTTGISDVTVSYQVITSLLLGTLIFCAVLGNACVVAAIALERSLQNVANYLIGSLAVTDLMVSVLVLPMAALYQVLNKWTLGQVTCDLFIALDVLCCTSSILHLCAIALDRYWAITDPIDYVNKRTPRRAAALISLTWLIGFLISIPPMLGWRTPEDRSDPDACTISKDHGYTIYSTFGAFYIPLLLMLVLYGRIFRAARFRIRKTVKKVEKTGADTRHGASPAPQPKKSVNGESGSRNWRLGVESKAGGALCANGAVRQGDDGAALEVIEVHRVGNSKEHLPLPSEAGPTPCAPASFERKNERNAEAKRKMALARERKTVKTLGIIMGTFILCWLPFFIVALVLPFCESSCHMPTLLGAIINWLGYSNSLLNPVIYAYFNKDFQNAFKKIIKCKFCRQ

[2] = both sexes, human, plasma, single oral 20 mg, fasted, N = 18, mean (SD)
[3] = both sexes, human, plasma, single oral 20 mg, fed with high-fat, high-calorie meal, N = 18, mean (SD)
[4] = both sexes, human, plasma, single oral 20 mg, fed with standard meal, N = 18, mean (SD)
[5] = single 20 mg tablet, fed vs fasted

What does the source list for `Cc1nc(-c2cnc(N3CCN(CCCc4c[nH]c5ccc(C#N)cc45)CC3)nc2)sc1C(N)=O` [HEC113995PA·H2O]?
Cmax [1, 2]: 63 ng/mL; MRT [1, 2]: 38.3 h; half-life [1, 2]: 29 h; Vd/F [1, 2]: 447 L; Tmax ([1]; both sexes, human, plasma, single oral 20 mg, fasted): 4 h; Cmax [1, 3]: 117 ng/mL; MRT [1, 3]: 35.8 h; half-life [1, 3]: 30.5 h; Vd/F [1, 3]: 297 L; Tmax ([1]; both sexes, human, plasma, single oral 20 mg, fed with high-fat, high-calorie meal): 5 h; Cmax [1, 4]: 106 ng/mL; MRT [1, 4]: 35.4 h; half-life [1, 4]: 29.5 h; Vd/F [1, 4]: 298 L; Tmax ([1]; both sexes, human, plasma, single oral 20 mg, fed with standard meal): 5 h; AUC(0-inf) [1, 2]: 1960 ng·h/mL; AUC(0-t) [1, 2]: 1860 ng·h/mL; food effect, increases in exposure parameters ([1]; discussion summary): 52%–93; food impact on Tmax and t1/2 ([1]; single 20 mg tablet): no significant impacts; increase of AUC0-∞ by food intake [1, 5]: 52.15∼58.20%; increase of Cmax by food intake [1, 5]: 77.09∼93.45%; increase of AUC0-∞, high-fat meal vs standard meal ([1]; single 20 mg tablet, P > 0.05): 3.97%; increase of Cmax, high-fat meal vs standard meal ([1]; single 20 mg tablet, P > 0.05): 9.24%; CL/F ([1]; single oral 20 mg, fasted, N = 18, mean (SD)): 10.8 (2.5) L/h; CL/F ([1]; single oral 20 mg, fed with high-fat, high-calorie meal, N = 18, mean (SD)): 6.8 (1.5) L/h; CL/F ([1]; single oral 20 mg, fed with standard meal, N = 18, mean (SD)): 7.1 (1.6) L/h; 5-HT1A receptor activity relative to Vortioxetine (5-HT1A receptor): comparable activity; activity in agonizing 5-HT1A receptor relative to HEC61139 (Vilazodone) (5-HT1A receptor): slightly weaker activity
